Experimental data: patent US20240101535A1, “DIHYDROISOQUINOLINONE DERIVATIVE AND APPLICATION THEREOF” (ETERN BIOPHARMA (SHANGHAI) CO., LTD., priority 2020, published 2024)
Counter-ions that a name gives are not always drawn. Like-named read-outs stand apart in the source and are kept apart here.

Key:
[1] = target: WDR5 protein (22-334aa) with MLL1 polypeptide (3672-3773aa) (Homo sapiens, UniProt P61964); assay: WDR5-MLL PPI inhibitory activity test (HTRF); assay type: binding; conditions: His-tagged WDR5 and biotin-tagged MLL1 polypeptide
Method in brief: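 His-tagged WDR5 (42 nM working solution) was preincubated with compound for 60 min at room temperature in 25 mM HEPES pH 7.5, 100 mM NaCl, 0.05% Tween 20 (final DMSO 0.5%). Biotin-MLL1 peptide (333 nM working solution) was then added for 10 min, followed by Eu-cryptate/streptavidin-APC detection for 60 min. The 665/620 nm ratio gave IC50.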

MV4-11 cells = assay: MV4-11 cell proliferation inhibition experiment (CellTiter-Glo); assay type: cell-based; conditions: Homo sapiens, 144 h, 6 days
Jurkat cells = assay: Jurkat cell proliferation inhibition experiment (CellTiter-Glo); assay type: cell-based; conditions: for IC50: Homo sapiens, 144 h, Jurkat cells, 6 days, CellTiter-Glo, read-out: Jurkat cell proliferation inhibitory activity IC50; for selectivity: ratio of Jurkat cell IC50 to MV4-11 cell IC50
Procedure: Test Example 3: Jurkat (ATCC: TIB-152) Cell Proliferation Inhibition Experiment
ATP in living cells was quantitatively detected by CellTiter-Glo (Promega-G7573) Luminescence Cell Viability Assay Kit to determine the effect of the compounds to be tested on cell proliferation. • Step 1: Jurkat cells were seeded in 96-well plates (Greiner-655098) at a density of 1,500 cells per well with a volume of 140 μL per well; Cell culture medium components included RPM11640 (Gibco-A10491-01)+10% FBS (Gibco-10099-141C)+1% Penicillin-Streptomycin (5,000 U/mL, Gibco-15070-063). • Step 2: On the day of cell seeding, the cells were treated with the compound to be tested. The compound to be tested was diluted with a 3-fold gradient, and a total of 9 concentration gradients were set. DMSO (Sigma, D2650) with 0.5% final concentration or a DMSO solution containing the compound to be tested was added per well with 2 or 3 replicate wells at each concentration point. The plates were incubated at 37° C. in a 5% CO2 incubator (Thermo Scientific Steri-Cycle 371) for 6 days. • Step 3: The cell viability in the control and treatment groups was detected with CellTiter-Glo Luminescent Cell Viability Assay Kit. 50 μL of CellTiter-Glo was added per well, mixed well, and incubated for 15 min at room temperature protected from light. According to the kit instructions, the chemiluminescence signal was read using a multifunctional microplate reader (EnVision, PerkinElmer).
The inhibition percentage (%) of the compound at each concentration point was calculated by the following formula:
Inhibition Percentage (%)=(1−signal value of the group treated with the compound/signal value of the group treated with DMSO)*100.
The value of cell proliferation semi-inhibitory concentration IC50 was calculated using GraphPad Prism software, and the results are shown in Table 3. The ratio of Jurkat cell proliferation inhibitory activity IC50 to MV4-11 cell proliferation inhibitory activity IC50 may be further calculated to obtain selectivity.

[2] = read-out: MV4-11 cell proliferation inhibitory activity IC50
[3] = read-out: cell proliferation inhibitory activity

## CCOc1cc([C@H](C)N2CC3(CC(F)(F)C3)c3c(CN(C)C)cc(Cn4ccnc4NC)cc3C2=O)ncc1C#N [Compound 99]
[1]
  IC50: < 20 nM
MV4-11 cells; [2]
  IC50: 4 nM
MV4-11 cells; [3]
  IC50: < 50 nM
Jurkat cells
  IC50: 1200 nM
  selectivity: 300 time

## CCOc1cc([C@H](C)N2C[C@]3(CC3(F)F)c3c(CN(C)C)cc(Cn4ccnc4NC)cc3C2=O)ncc1F [Compound 91, (S)-5′-((dimethylamino)methyl)-2′-((S)-1-(4-ethoxy-5-fluoropyridine-2-yl)ethyl)-2,2-difluoro-7′-((2-(methylamino)-1H imidazol-1-yl)methyl)-2′, 3′-dihydro-1′H-spiro[cyclopropan-1,4′-isoquinoline]-1′-one]
[1]
  IC50: < 20 nM
MV4-11 cells; [2]
  IC50: 10 nM
MV4-11 cells; [3]
  IC50: < 50 nM
Jurkat cells
  IC50: 3100 nM
  selectivity: 310 time

## CCOc1cc([C@H](C)N2C[C@@]3(CC3(F)F)c3c(CN(C)C)cc(Cn4ccnc4NC)cc3C2=O)ncc1C#N (stereo in doubt) [Compound 94, 6-(-1-(5′-((dimethylamino)methyl)-2,2-difluoro-7′-((2-(methylamino)-1H-imidazol-1-yl)methyl)-1′-one-1′H-spiro[cyclopropan-1,4′-isoquinoline]-2′(3′H)-yl)ethyl)-4-ethoxynicotinonitrile formate salt]
[1]
  IC50: < 20 nM
MV4-11 cells; [2]
  IC50: 3 nM
MV4-11 cells; [3]
  IC50: < 50 nM
Jurkat cells
  IC50: 1400 nM
  selectivity: 466 time

## [2H]C([2H])([2H])N(Cc1cc(Cn2ccnc2NC)cc2c1C1(CCC1)CN(C(C)c1cc(OCC)c(C#N)cn1)C2=O)C([2H])([2H])[2H] (stereo not shown) [Compound 100, 6-(1-(5′-((bis(methyl-d3)amino)methyl)-7′-((2-(methylamino)-1H-imidazol-1′-yl)methyl)-1′-oxo-1′H-spiro [cyclobutan-1,4′-isoquinoline]-2′(3′H)-yl)ethyl)-4-ethoxynicotinonitrile]
[1]
  IC50: < 20 nM
MV4-11 cells; [2]
  IC50: 5 nM
MV4-11 cells; [3]
  IC50: < 50 nM
Jurkat cells
  IC50: 1600 nM
  selectivity: 320 time

## CCOc1cc(CN2CC3(CCC3)c3c(CN4CC(F)(F)C4)cc(Cn4ccnc4NC)cc3C2=O)ncc1C#N [Compound 82, 6-((5′-((3,3-difluoroazetidinyl-1-yl)methyl)-7′-((2-(methylamino)-1H-imidazol-1-yl)methyl)-1′-one-1′H-spiro[cyclobutan-1,4′-isoquinoline]-2′(3′H)-yl)methyl)-4-ethoxynicotinonitrile]
[1]
  IC50: < 20 nM
MV4-11 cells; [3]
  IC50: < 50 nM

## CCOc1cc([C@H](C)N2CC3(CC3)c3c(CN(C)C)cc(Cn4ccnc4NC)cc3C2=O)ncc1F [Compound 1, (S)-5′-((dimethylamino)methyl)-2′-(1-(4-ethoxy-5-fluoropyridine-2-yl)ethyl)-7′-((2-(methylamino)-1H-imidazol-1-yl)methyl)-2′,3′-dihydro-1′H-spiro[cyclopropan-1,4′-isoquinoline]-1′-one]
[1]
  IC50: < 20 nM
MV4-11 cells; [2]
  IC50: 19 nM
MV4-11 cells; [3]
  IC50: 50 to 200 nM
Jurkat cells
  IC50: 6800 nM
  selectivity: 357 time

## CCOc1cc([C@H](C)N2CC3(CC(F)(F)C3)c3c(CN(C)C)cc(Cn4ccnc4NC)cc3C2=O)ncc1F [Compound 98]
[1]
  IC50: < 20 nM
MV4-11 cells; [3]
  IC50: 50 to 200 nM

## CNc1nccn1Cc1cc(CN(C)C)c2c(c1)C(=O)N([C@@H](C)c1cnc(F)c(OC)c1)CC21CC1 [Compound 4]
[1]
  IC50: < 20 nM
MV4-11 cells; [3]
  IC50: < 50 nM

## CNc1nccn1Cc1cc(CN(C)C)c2c(c1)C(=O)N(C(C)c1ccc(F)c(OC)c1)CC21CCC1 (stereo not shown) [Compound 107, 5′-((dimethylamino)methyl)-2′-(1-(4-fluoro-3-methoxyphenyl)ethyl)-7′-((2-(methylamino)-1H-imidazol-1-yl)methyl)-2′,3′-dihydro-1′H-spiro[cyclobutan-1,4′-isoquinoline]-1′-one]
[1]
  IC50: < 20 nM
MV4-11 cells; [3]
  IC50: < 50 nM

## CCOc1cc([C@H](C)N2CC3(CC3)c3c(CN4CCN(C5CC5)CC4)cc(Cn4ccnc4NC)cc3C2=O)ncc1F [Compound 64, (S)-5′-((4-cyclopropylpiperazin-1-yl)methyl)-2′-(1-(4-ethoxy-5-fluoropyridine-2-yl)ethyl)-7′-((2-(methylamino)-1H-imidazol-1-yl)methyl)-2′,3′-dihydro-1′H-spiro[cyclopropan-1,4′-isoquinoline]-1′-one]
[1]
  IC50: < 20 nM
MV4-11 cells; [3]
  IC50: 50 to 200 nM

## CCOc1cc(C(C)N2CC3(CC3(F)F)c3c(CN(C)C)cc(Cn4ccnc4NC)cc3C2=O)ncc1F (single isomer, unassigned) [Compound 88]
[1]
  IC50: < 20 nM
MV4-11 cells; [3]
  IC50: < 50 nM

## CCOc1cc([C@H](C)N2CC3(CC3)c3c(CN4CCOCC4)cc(Cn4ccnc4NC)cc3C2=O)ncc1C#N [Compound 59]
[1]
  IC50: < 20 nM
MV4-11 cells; [3]
  IC50: < 50 nM

## CCOc1cc([C@H](C)N2CC3(CCC3)c3c(CN(C)C)cc(Cn4ccnc4NC)cc3C2=O)ncc1C#N [Compound 23, (S)-6-(1-(5′-((dimethylamino)methyl)-7′-((2-(methylamino)-1H-imidazol-1-yl)methyl)-1′-one-1′H-spiro[cyclobutan-1,4′-isoquinoline]-2′(3′H)-yl)ethyl)-4-ethoxynicotinonitrile]
[1]
  IC50: < 20 nM
MV4-11 cells; [2]
  IC50: 4 nM
MV4-11 cells; [3]
  IC50: < 50 nM
Jurkat cells
  IC50: 1400 nM
  selectivity: 350 time

## CCOc1cc(CN2CC3(CCC3)c3c(CN4CCN(C)CC4)cc(Cn4ccnc4NC)cc3C2=O)nn1C [Compound 87, 2′-((5-ethoxy-1-methyl-1H-pyrazole-3-yl)methyl)-7′-((2-(methylamino)-1H-imidazol-1-yl)methyl)-5′-((4-methylpiperazin-1-yl)methyl)-2′,3′-dihydro-1′H-spiro[cyclobutan-1,4′-isoquinoline]-1′-one]
[1]
  IC50: < 20 nM
MV4-11 cells; [3]
  IC50: < 50 nM

## CCOc1cc([C@H](C)N2CC3(CCC3)c3c(CN4CCN(C)CC4)cc(Cn4ccnc4NC)cc3C2=O)ncc1F [Compound 83, (S)-2′-(1-(4-ethoxy-5-fluoropyridine-2-yl)ethyl)-7′-((2-(methylamino)-1H-imidazol-1-yl)methyl)-5′-((4-methylpiperazin-1-yl)methyl)-2′,3′-dihydro-1′H-spiro[cyclobutan-1,4′-isoquinoline]-1′-one]
[1]
  IC50: < 20 nM
MV4-11 cells; [3]
  IC50: < 50 nM

## CCOc1cc(C(C)N2CC3(CC3)c3c(CN(C)CC(F)(F)F)cc(Cn4ccnc4NC)cc3C2=O)ncc1F (stereo not shown) [Compound 41, 2′-(1-(4-ethoxy-5-fluoropyridine-2-yl)ethyl)-5′-((methyl(2,2,2-trifluoroethyl)amino)methyl)-7′-((2-(methylamino)-1H-imidazol-1-yl)methyl)-2′,3′-dihydro-1′H-spiro[cyclopropan-1,4′-isoquinoline]-1′-one]
[1]
  IC50: 20 to 100 nM
MV4-11 cells; [3]
  IC50: 50 to 200 nM

## CNc1nccn1Cc1cc(CN(C)C)c2c(c1)C(=O)N([C@@H](C)c1cc(OC3CC3)c(F)cn1)CC21CC1 [Compound 14]
[1]
  IC50: < 20 nM
MV4-11 cells; [3]
  IC50: 50 to 200 nM

## CCOc1cc([C@H](C)N2CC3(CC3)c3c(CN4CC(F)(F)C4)cc(Cn4ccnc4NC)cc3C2=O)ncc1C#N [Compound 67, (S)-6-(1-(5′-((3,3-difluoroazetidinyl-1-yl)methyl)-7′-((2-(methylamino)-1H-imidazol-1-yl)methyl)-1′-one-1′H-spiro[cyclopropan-1,4′-isoquinoline]-2′(3′H)-yl)ethyl)-4-ethoxynicotinonitrile]
[1]
  IC50: < 20 nM
MV4-11 cells; [3]
  IC50: < 50 nM

## CCOc1cc([C@H](C)N2CC3(CC3)c3c(CN4CCN(C)CC4)cc(Cn4ccnc4NC)cc3C2=O)ncc1F [Compound 37]
[1]
  IC50: < 20 nM
MV4-11 cells; [3]
  IC50: < 50 nM

## CCOc1cc([C@@H](C)N2C[C@@]3(CC3(F)F)c3c(CN4CCN(C)CC4)cc(Cn4ccnc4NC)cc3C2=O)ncc1F (stereo in doubt) [Compound 93, 2′-(-1-(4-ethoxy-5-fluoropyridine-2-yl)ethyl)-2,2-difluoro-7′-((2-(methylamino)-1H-imidazol-1-yl)methyl)-5′-((4-methylpiperazin-1-yl)methyl)-2′,3′-dihydro-1′H-spiro[cyclopropan-1,4′-isoquinoline]-1′-one formate salt]
[1]
  IC50: < 20 nM
MV4-11 cells; [3]
  IC50: < 50 nM
